The values below are quoted from earlier work in patent publication US20100317677A1, “Methods of Treating a Microbial Infection by Modulating RNase-L Expression and/or Activity” (priority 2007, published 2010).

This data set addresses T1, RNase-L (Homo sapiens, UniProt Q05823).
T1 sequence (Q05823 1-741): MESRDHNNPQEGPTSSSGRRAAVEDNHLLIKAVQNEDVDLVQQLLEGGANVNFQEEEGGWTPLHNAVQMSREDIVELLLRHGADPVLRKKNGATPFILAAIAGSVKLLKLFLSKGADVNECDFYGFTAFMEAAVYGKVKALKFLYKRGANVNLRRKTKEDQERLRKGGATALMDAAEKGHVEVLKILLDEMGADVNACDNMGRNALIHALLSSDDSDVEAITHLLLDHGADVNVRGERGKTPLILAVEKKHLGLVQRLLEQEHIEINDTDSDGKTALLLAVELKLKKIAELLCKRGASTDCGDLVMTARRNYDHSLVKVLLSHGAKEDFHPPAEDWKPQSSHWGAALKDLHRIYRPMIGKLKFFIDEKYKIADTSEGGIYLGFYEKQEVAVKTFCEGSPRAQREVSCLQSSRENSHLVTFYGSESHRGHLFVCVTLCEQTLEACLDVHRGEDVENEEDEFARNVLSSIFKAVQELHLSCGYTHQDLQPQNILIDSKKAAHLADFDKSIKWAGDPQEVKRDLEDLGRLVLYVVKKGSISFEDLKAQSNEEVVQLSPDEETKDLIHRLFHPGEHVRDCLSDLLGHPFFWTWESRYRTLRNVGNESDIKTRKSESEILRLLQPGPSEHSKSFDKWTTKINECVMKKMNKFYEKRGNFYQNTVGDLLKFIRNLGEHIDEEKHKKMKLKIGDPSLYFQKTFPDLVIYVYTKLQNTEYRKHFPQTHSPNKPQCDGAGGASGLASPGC
Conditions: statement in words, cited from Thakur et al. 2007 and other literature.

Turning to px5′A(2′p5′A)n [2-5A], the “Effect on the activity of RNase-L” value is given as “increases the activity of RNase-L”.
